Data: US20130079274A1, “PHARMACEUTICAL COMPOSITIONS FOR TREATING DYSREGULATED INFLAMMATORY DISEASES” (priority 2009, published 2013)
Ends that are not written are not given here.

Tests used:
[1] = system: CLP-induced polymicrobial sepsis; experiment: Mortality after cecal ligation and puncture (CLP) polymicrobial sepsis; assay type: in vivo, C57BL/6-mice; details: over 96 h
Text: Maintenance and use of the animals were in accord with the German Animal Welfare Legislation. All experiments were approved by the local institutional animal care and research advisory committee and permitted by the local government of Lower Saxony (Germany). 47 male C57BL/6-mice (Charles River, Germany) with a weight of 20±3 g were used for the study. All animals were handled at room temperature for 14 days before treatment. Animals were maintained under standardized conditions with a controlled environment at 21±2° C., relative humidity of 50% and artificial light (14 hours light, 10 hours dark). They received a commercial pellet diet (altromin 1317) and water ad libitum. Analgetic treatment was performed in all animals (200 mg/kg body weight (BW) metamizol-sodium, Novalgin®, Hoechst, Unterschleiβheim, Germany) throughout the study.
All surgical procedures were performed after deeply anaesthetizing the animals with isoflurane. The mice were warmed to 36° C. using infrared warming lamps after having finished the surgical procedures. All mice received once daily subcutaneous injections of 1 ml sterile ringer's lactate for fluid replacement.
The surgical procedure was as follows: the cecum was exposed after a midline laparotomy and ligated distal to the ileocecal valve. Subsequently, the cecum was punctured twice using a 21 G needle and was returned to the abdominal cavity. […]

[2] = system: CLP-induced polymicrobial sepsis; experiment: Activity score after CLP; assay type: in vivo, C57BL/6-mice; details: 4 μg/kg i.p. simultaneously to CLP, vs control
Method: The surgical procedure was as follows: the cecum was exposed after a midline laparotomy and ligated distal to the ileocecal valve. Subsequently, the cecum was punctured twice using a 21 G needle and was returned to the abdominal cavity. The model also includes the protrusion of contents of the cecum to assure the presence of bacteria in the peritoneum. The closure of the abdomen was performed with double layer sutures. Data were obtained 4, 24 and 96 hours after surgery. Clinical data concerning mortality and activity were obtained once daily until 96 hours after instrumentation.
As a measure for clinical status, activity of mice was analyzed by using a previously established scoring system, see table 1. Within this score, the spontaneous activity, spontaneous food intake and response to exogenous stimuli was analyzed. The scoring of each animal (from 1=moribund to 6=very active) was independently performed in a blinded fashion by two persons and the mean of both values was recorded.

[3] = system: sepsis-related mortality; details: pretreatment four days before sepsis induction; cited from earlier work
[4] = system: peritoneal macrophages; experiment: Cytokine and chemokine secretion of isolated peritoneal macrophages after CLP; details: cells isolated 24 h after CLP, cultured 24 h; vs control, p>0.05
Method: The control group received saline as vehicle, the study group was substituted with 4 μg/kg MALP-2 i.p simultaneously to cecal ligation and puncture (CLP). All animals underwent CLP for induction of polymicrobial sepsis.
Peritoneal macrophages were isolated by lavage of the peritoneal cavity with 3×5 ml PBS containing 10 IU/ml heparin (Ratiopharm) 24 hours after CLP. Thereafter, cells were washed once with PBS and centrifuged at 400×g for 15 minutes at 4° C. The pellet was resuspended in 5 ml RPMI (Biochrom) containing 10% FCS and antibiotics (50 U/ml penicillin, 50 μg/ml streptomycin, Invitrogen; 2.5 μg/ml Amphotericin B, Biochrom). 106 cells were plated in a 24-well plate and incubated for 24 hours at 37° C., 95% humidity, and 5% CO2. At the end of the incubation period, the supernatants were removed and stored at −80° C. until analysis was performed.
Cytokine and chemokines in plasma and cell culture supernatant were measured with Multiplex and Simplex Kits according to manufacturer's instructions (BenderMed Systems, Vienna, Austria).

[5] = system: sepsis, septic shock and MODS; details: patients with sepsis; cited from earlier work

Substance: Macrophage-activating lipopeptide-2 (GNNDESNISFKEK; not fully specified) [MALP-2]
- total mortality ([1]; 4 μg/kg BW i.p. simultaneously to CLP, control 62.5%, p=0.031): 12.5%
- mortality ([1]; MALP-2 i.p. 6 hours following CLP, p=0.047 vs vehicle): 22.2%
- activity rates (activity score, table 1) ([2]; 24 to 72 hours following CLP, p<0.05): increased
- activity rates (activity score, table 1) ([2]; after 96 hours): comparable between both groups
- protection against sepsis-related mortality [3]: partial protection
- IL-6, IL-10, TNF-α, MCP-1, MCP-3 or GM-CSF of peritoneal macrophages [4]: No differences

Substance: activated protein C
- reduction of death of affected patients [5]: 6.1%
